From ChEMBL document CHEMBL1201862, “PubChem BioAssay data set” (2004)
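Test compounds were applied to cells in 96-well plates for 48 hours at 5 doses. At the GI50, growth is halved.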 Calls of active or inactive are those of the source. No stated cut-off is given here; in the data, active = GI50 up to about 1.1 µM and inactive = higher.

How the values were obtained:
Experiment in all cases: inhibition of tumour cell growth, NCI panel, 48 h
786-0 = tested on: 786-0
CCRF-CEM = tested on: CCRF-CEM
HOP-62 = tested on: HOP-62
KM12 = tested on: KM12
MDA-MB-435 = tested on: MDA-MB-435
MDA-N = tested on: MDA-N
Malme-3M = tested on: Malme-3M
NCI-H23 = tested on: NCI-H23
NCI-H522 = tested on: NCI-H522
NCI/ADR-RES = tested on: NCI/ADR-RES
RPMI-8226 = tested on: RPMI-8226
SF-539 = tested on: SF-539
SK-MEL-2 = tested on: SK-MEL-2
SK-OV-3 = tested on: SK-OV-3
SW-620 = tested on: SW-620
T47D = tested on: T47D
U-251 = tested on: U-251
UACC-257 = tested on: UACC-257
UO-31 = tested on: UO-31

Nc1ncnc2c1ncn2[C@H]1CC[C@@H](NO)C1
GI50 (786-0): > 100 µM (inactive) | GI50 (CCRF-CEM): > 100 µM (inactive) | GI50 (HOP-62): > 100 µM (inactive) | GI50 (KM12): > 100 µM (inactive) | GI50 (MDA-MB-435): > 100 µM (inactive) | GI50 (MDA-N): > 100 µM (inactive) | GI50 (Malme-3M): > 100 µM (inactive) | GI50 (NCI-H23): > 100 µM (inactive) | GI50 (NCI-H522): > 100 µM (inactive) | GI50 (NCI/ADR-RES): > 100 µM (inactive) | GI50 (RPMI-8226): > 100 µM (inactive) | GI50 (SF-539): > 100 µM (inactive) | GI50 (SK-MEL-2): > 100 µM (inactive) | GI50 (SK-OV-3): > 100 µM (inactive) | GI50 (SW-620): > 100 µM (inactive) | GI50 (T47D): > 100 µM (inactive) | GI50 (U-251): > 100 µM (inactive) | GI50 (UACC-257): > 100 µM (inactive) | GI50 (UO-31): > 100 µM (inactive)

O=C1C(=CNc2ccccc2Cl)C(=O)N(c2ccccc2)C(=O)N1c1ccccc1
GI50 (786-0): > 100 µM (inactive) | GI50 (CCRF-CEM): > 100 µM (inactive) | GI50 (HOP-62): > 100 µM (inactive) | GI50 (KM12): > 100 µM (inactive) | GI50 (MDA-MB-435): > 100 µM (inactive) | GI50 (MDA-N): > 100 µM (inactive) | GI50 (Malme-3M): > 100 µM (inactive) | GI50 (NCI-H23): > 100 µM (inactive) | GI50 (NCI-H522): > 100 µM (inactive) | GI50 (NCI/ADR-RES): > 100 µM (inactive) | GI50 (RPMI-8226): > 100 µM (inactive) | GI50 (SF-539): > 100 µM (inactive) | GI50 (SK-MEL-2): 27.9 µM (inactive) | GI50 (SK-OV-3): > 100 µM (inactive) | GI50 (SW-620): > 100 µM (inactive) | GI50 (T47D): > 100 µM (inactive) | GI50 (U-251): > 100 µM (inactive) | GI50 (UACC-257): > 100 µM (inactive) | GI50 (UO-31): > 100 µM (inactive)

CC(C)=CCC[C@@H](C)[C@H]1CC[C@@]2(C)[C@@H]3CC[C@H]4C(C)(C)[C@@H](O)CC[C@@]45C[C@@]35CC[C@]12C [CYCLOARTENOL]
GI50 (786-0): 43.8 µM (inactive) | GI50 (CCRF-CEM): 23 µM (inactive) | GI50 (HOP-62): 24.9 µM (inactive) | GI50 (KM12): > 56.8 µM (inactive) | GI50 (MDA-MB-435): > 41.9 µM (inactive) | GI50 (MDA-N): > 72.9 µM (inactive) | GI50 (Malme-3M): > 100 µM (inactive) | GI50 (NCI-H23): 22.7 µM (inactive) | GI50 (NCI-H522): 20.7 µM (inactive) | GI50 (NCI/ADR-RES): 23.4 µM (inactive) | GI50 (RPMI-8226): 45 µM (inactive) | GI50 (SF-539): > 49.7 µM (inactive) | GI50 (SK-MEL-2): 27.2 µM (inactive) | GI50 (SK-OV-3): 53.5 µM (inactive) | GI50 (SW-620): 58.2 µM (inactive) | GI50 (T47D): 51.4 µM (inactive) | GI50 (U-251): 15.5 µM (inactive) | GI50 (UACC-257): > 100 µM (inactive) | GI50 (UO-31): > 40.7 µM (inactive)

O=C1c2cccc3cc4ccccc4c(c23)C(=O)N1CCCNCCNCCCN1C(=O)c2cccc3cc4ccccc4c(c23)C1=O
GI50 (786-0): 0.02 µM (active) | GI50 (CCRF-CEM): < 0.01 µM (active) | GI50 (HOP-62): 0.0203 µM (active) | GI50 (KM12): 0.106 µM (active) | GI50 (MDA-MB-435): 0.0421 µM (active) | GI50 (MDA-N): 0.0546 µM (active) | GI50 (Malme-3M): 0.211 µM (active) | GI50 (NCI-H23): 0.0509 µM (active) | GI50 (NCI-H522): < 0.01 µM (active) | GI50 (NCI/ADR-RES): 0.314 µM (active) | GI50 (RPMI-8226): < 0.01 µM (active) | GI50 (SF-539): 0.142 µM (active) | GI50 (SK-MEL-2): 0.338 µM (active) | GI50 (SK-OV-3): 0.31 µM (active) | GI50 (SW-620): < 0.01 µM (active) | GI50 (T47D): 0.421 µM (active) | GI50 (U-251): 0.0264 µM (active) | GI50 (UACC-257): 1.02 µM (active) | GI50 (UO-31): 0.33 µM (active)

O=c1ssc(Cl)c1Cl
GI50 (786-0): > 4.7 µM (inactive) | GI50 (CCRF-CEM): 1.63 µM (inactive) | GI50 (HOP-62): > 10 µM (inactive) | GI50 (KM12): > 10 µM (inactive) | GI50 (MDA-MB-435): > 10 µM (inactive) | GI50 (MDA-N): > 10 µM (inactive) | GI50 (Malme-3M): > 6.11 µM (inactive) | GI50 (NCI-H23): > 10 µM (inactive) | GI50 (NCI-H522): 4.05 µM (inactive) | GI50 (NCI/ADR-RES): > 10 µM (inactive) | GI50 (RPMI-8226): 5.19 µM (inactive) | GI50 (SF-539): > 10 µM (inactive) | GI50 (SK-MEL-2): > 10 µM (inactive) | GI50 (SK-OV-3): > 10 µM (inactive) | GI50 (SW-620): 3.55 µM (inactive) | GI50 (T47D): > 10 µM (inactive) | GI50 (U-251): > 10 µM (inactive) | GI50 (UACC-257): > 7.19 µM (inactive) | GI50 (UO-31): > 4.93 µM (inactive)

C=CCN(c1cc(OCc2ccccc2)c2c(c1)c(C)cn2S(=O)(=O)c1ccccc1)S(C)(=O)=O
GI50 (786-0): > 100 µM (inactive) | GI50 (CCRF-CEM): > 100 µM (inactive) | GI50 (HOP-62): > 100 µM (inactive) | GI50 (KM12): > 100 µM (inactive) | GI50 (MDA-MB-435): > 100 µM (inactive) | GI50 (MDA-N): > 100 µM (inactive) | GI50 (Malme-3M): > 100 µM (inactive) | GI50 (NCI-H23): > 100 µM (inactive) | GI50 (NCI-H522): > 100 µM (inactive) | GI50 (NCI/ADR-RES): > 100 µM (inactive) | GI50 (RPMI-8226): > 100 µM (inactive) | GI50 (SF-539): > 100 µM (inactive) | GI50 (SK-MEL-2): > 100 µM (inactive) | GI50 (SK-OV-3): > 100 µM (inactive) | GI50 (SW-620): > 100 µM (inactive) | GI50 (T47D): > 100 µM (inactive) | GI50 (U-251): > 100 µM (inactive) | GI50 (UACC-257): > 100 µM (inactive)
